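Method: 48-hour compound exposure of cells in 96-well plates, five concentrations, linear interpolation of endpoints. GI50: concentration for 50% inhibition of growth.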 Calls of active or inactive are those of the source. Rule as the data show it: active = GI50 up to about 1.1 µM and inactive = higher.
Columns and labels:
Assay in all cases: growth of human tumour cells (NCI), 48 h
Hs-578T = tested on: Hs-578T
CCRF-CEM = tested on: CCRF-CEM
SNB-19 = tested on: SNB-19
ACHN = tested on: ACHN
UACC-62 = tested on: UACC-62
SR = tested on: SR
U-251 = tested on: U-251
EKVX = tested on: EKVX
NCI-H522 = tested on: NCI-H522
DU-145 = tested on: DU-145
SK-OV-3 = tested on: SK-OV-3
UACC-257 = tested on: UACC-257
SK-MEL-28 = tested on: SK-MEL-28
HOP-92 = tested on: HOP-92
HT-29 = tested on: HT-29
786-0 = tested on: 786-0
KM12 = tested on: KM12
NCI-H226 = tested on: NCI-H226
A498 = tested on: A498

Structure (SMILES) | GI50 (Hs-578T) | GI50 (CCRF-CEM) | GI50 (SNB-19) | GI50 (ACHN) | GI50 (UACC-62) | GI50 (SR) | GI50 (U-251) | GI50 (EKVX) | GI50 (NCI-H522) | GI50 (DU-145) | GI50 (SK-OV-3) | GI50 (UACC-257) | GI50 (SK-MEL-28) | GI50 (HOP-92) | GI50 (HT-29) | GI50 (786-0) | GI50 (KM12) | GI50 (NCI-H226) | GI50 (A498)
CC(=O)O[C@H]1C(=O)[C@]2(C)[C@@H](OC(=O)OCC(O)CO)C[C@H]3OC[C@@]3(OC(C)=O)[C@H]2[C@H](OC(=O)c2ccccc2)[C@]2(O)C[C@H](OC(=O)[C@H](O)[C@@H](NC(=O)c3ccccc3)c3ccccc3)C(C)=C1C2(C)C (some centres not stated) [PACLITAXEL CERIBATE] | < 0.01 µM (active) | < 0.01 µM (active) | < 0.01 µM (active) | 11.1 µM (inactive) | < 0.01 µM (active) | < 0.01 µM (active) | < 0.01 µM (active) | 0.0387 µM (active) | < 0.01 µM (active) | < 0.01 µM (active) | < 0.01 µM (active) | < 0.01 µM (active) | 14.5 µM (inactive) | 22.4 µM (inactive) | < 0.01 µM (active) | < 0.01 µM (active) | < 0.01 µM (active) | – | –
c1ccc2nn(C3CCCCO3)nc2c1 (configuration not stated) | > 100 µM (inactive) | > 100 µM (inactive) | > 100 µM (inactive) | > 100 µM (inactive) | > 100 µM (inactive) | > 100 µM (inactive) | > 100 µM (inactive) | > 100 µM (inactive) | > 100 µM (inactive) | > 100 µM (inactive) | > 100 µM (inactive) | > 100 µM (inactive) | – | – | > 100 µM (inactive) | > 100 µM (inactive) | > 100 µM (inactive) | > 100 µM (inactive) | –
COc1ccc(OC2OC(COC(c3ccccc3)(c3ccc(OC)cc3)c3ccc(OC)cc3)C(O)C(O)C2O)cc1 (configuration not stated) | 3.96 µM (inactive) | 2.08 µM (inactive) | 9.66 µM (inactive) | 4 µM (inactive) | 3.43 µM (inactive) | 3.74 µM (inactive) | 3.6 µM (inactive) | 4.7 µM (inactive) | 3.49 µM (inactive) | 21.3 µM (inactive) | 6.43 µM (inactive) | 6.64 µM (inactive) | 2.41 µM (inactive) | – | 2.4 µM (inactive) | 2.32 µM (inactive) | 3.55 µM (inactive) | 12.3 µM (inactive) | 11.7 µM (inactive)
CN(C)CCCNc1ccc([N+](=O)[O-])c2nc3ccccc3c(N)c12 | 3.33 µM (inactive) | 0.243 µM (active) | 0.635 µM (active) | 0.205 µM (active) | 1.25 µM (inactive) | 0.23 µM (active) | 0.738 µM (active) | 0.755 µM (active) | – | 0.308 µM (active) | 0.228 µM (active) | 1.63 µM (inactive) | 2.44 µM (inactive) | 0.516 µM (active) | 0.225 µM (active) | 0.385 µM (active) | 0.436 µM (active) | 5.14 µM (inactive) | 2.22 µM (inactive)
N#CC(NCCc1ccccc1)c1ccccc1 (configuration not stated) | > 100 µM (inactive) | > 100 µM (inactive) | > 100 µM (inactive) | > 100 µM (inactive) | > 100 µM (inactive) | > 100 µM (inactive) | > 100 µM (inactive) | > 100 µM (inactive) | > 100 µM (inactive) | > 100 µM (inactive) | > 100 µM (inactive) | > 100 µM (inactive) | > 100 µM (inactive) | > 100 µM (inactive) | > 100 µM (inactive) | > 100 µM (inactive) | > 100 µM (inactive) | > 100 µM (inactive) | –
COc1ccc2[nH]cc(CCNC(=O)[C@H](Cc3ccc(O)cc3)NC(=O)[C@@H](NCC(F)(F)F)C(C)C)c2c1 | 31 µM (inactive) | 39.7 µM (inactive) | > 100 µM (inactive) | > 100 µM (inactive) | > 100 µM (inactive) | > 100 µM (inactive) | 74.1 µM (inactive) | 99.8 µM (inactive) | 26.5 µM (inactive) | > 100 µM (inactive) | > 100 µM (inactive) | 62.5 µM (inactive) | 65.5 µM (inactive) | 75.5 µM (inactive) | 52.5 µM (inactive) | > 100 µM (inactive) | > 100 µM (inactive) | 41.8 µM (inactive) | –
CN1CCN(C(=S)N(C)C(=O)c2cccs2)CC1 | > 100 µM (inactive) | > 100 µM (inactive) | > 100 µM (inactive) | > 100 µM (inactive) | > 100 µM (inactive) | > 100 µM (inactive) | > 100 µM (inactive) | – | > 100 µM (inactive) | > 100 µM (inactive) | – | > 100 µM (inactive) | – | > 100 µM (inactive) | > 100 µM (inactive) | > 100 µM (inactive) | > 100 µM (inactive) | > 100 µM (inactive) | –
CN(C)c1ccc(/C(Br)=C2\OC(=O)c3ccccc32)cc1 | > 100 µM (inactive) | 51.4 µM (inactive) | > 100 µM (inactive) | > 100 µM (inactive) | > 100 µM (inactive) | 34.8 µM (inactive) | > 100 µM (inactive) | > 100 µM (inactive) | – | > 100 µM (inactive) | > 100 µM (inactive) | > 100 µM (inactive) | > 100 µM (inactive) | – | 42.3 µM (inactive) | > 100 µM (inactive) | 39.2 µM (inactive) | 24.4 µM (inactive) | > 100 µM (inactive)
CCC(C)NC(=S)N/N=C(\C)c1ccccn1 (configuration not stated) | 0.396 µM (active) | < 0.01 µM (active) | 1.45 µM (inactive) | < 0.01 µM (active) | 0.0733 µM (active) | < 0.01 µM (active) | 0.126 µM (active) | < 0.01 µM (active) | – | 1.28 µM (inactive) | 0.188 µM (active) | < 0.01 µM (active) | 1.91 µM (inactive) | 0.14 µM (active) | < 0.01 µM (active) | 0.171 µM (active) | 0.156 µM (active) | 0.102 µM (active) | 0.102 µM (active)
Cc1ccc([N+](=O)[O-])cc1S(=O)(=O)Nc1ccc(C2=NN(c3ccc([N+](=O)[O-])cc3[N+](=O)[O-])C(c3ccccc3O)C2)cc1 (configuration not stated) | 42.7 µM (inactive) | 25 µM (inactive) | 47.1 µM (inactive) | 35.1 µM (inactive) | – | 27.2 µM (inactive) | 37.1 µM (inactive) | 26 µM (inactive) | 21 µM (inactive) | 39.1 µM (inactive) | 57 µM (inactive) | 25.2 µM (inactive) | 75.5 µM (inactive) | 26.6 µM (inactive) | 43.3 µM (inactive) | 39.8 µM (inactive) | 37 µM (inactive) | 36.6 µM (inactive) | –
COc1c(OC)c(OC)c(C(=O)/C=C/c2ccccc2)c(OC)c1OC | 4.32 µM (inactive) | 1.96 µM (inactive) | 12.4 µM (inactive) | 11.7 µM (inactive) | 6.87 µM (inactive) | – | 7.46 µM (inactive) | 13.9 µM (inactive) | 3.12 µM (inactive) | 3.54 µM (inactive) | 12.3 µM (inactive) | 14.3 µM (inactive) | 13.4 µM (inactive) | 3.13 µM (inactive) | 4.47 µM (inactive) | 9.29 µM (inactive) | 4.1 µM (inactive) | 8.05 µM (inactive) | 4.28 µM (inactive)
NC(CCC(=O)NC(CSC(=O)N(O)c1ccc(Cl)cc1)C(=O)NCC(=O)O)C(=O)O (configuration not stated) | > 0.5 µM (active) | > 0.5 µM (active) | > 0.5 µM (active) | > 0.5 µM (active) | > 0.5 µM (active) | > 0.5 µM (active) | > 0.5 µM (active) | > 0.5 µM (active) | > 0.5 µM (active) | > 0.5 µM (active) | > 0.5 µM (active) | > 0.5 µM (active) | > 0.5 µM (active) | > 0.5 µM (active) | > 0.5 µM (active) | > 0.5 µM (active) | > 0.5 µM (active) | > 0.5 µM (active) | –
CC(C)CCCC(C)[C@H]1CCC2[C@@H]3CCC4Cc5nc6c(nc5C[C@]4(C)C3CC[C@@]21C)CC1CC[C@@H]2C(CC[C@@]3(C)C2CC[C@@H]3O)[C@@]1(C)C6 (some centres not stated) | > 100 µM (inactive) | > 100 µM (inactive) | > 100 µM (inactive) | > 100 µM (inactive) | > 100 µM (inactive) | > 100 µM (inactive) | > 100 µM (inactive) | > 100 µM (inactive) | – | > 100 µM (inactive) | > 100 µM (inactive) | > 100 µM (inactive) | > 100 µM (inactive) | > 100 µM (inactive) | > 100 µM (inactive) | 87.1 µM (inactive) | > 100 µM (inactive) | > 100 µM (inactive) | > 100 µM (inactive)
C[n+]1c2ccccc2n2c3ccccc3c(NCCc3ccccn3)c(C#N)c21 | 2.81 µM (inactive) | 1.25 µM (inactive) | 3.33 µM (inactive) | 1.49 µM (inactive) | 2.53 µM (inactive) | – | 1.68 µM (inactive) | 4.06 µM (inactive) | 0.828 µM (active) | 2.72 µM (inactive) | 3.4 µM (inactive) | 3.5 µM (inactive) | 2.32 µM (inactive) | 5.97 µM (inactive) | 2.99 µM (inactive) | 1.58 µM (inactive) | 2.47 µM (inactive) | 2.55 µM (inactive) | 4.4 µM (inactive)
O=C(/C=C/C(Cl)(Cl)Cl)Nc1ccc(Cl)cc1 | 25.4 µM (inactive) | 1.56 µM (inactive) | 17.7 µM (inactive) | 2.3 µM (inactive) | 7.64 µM (inactive) | – | 11.6 µM (inactive) | 5.02 µM (inactive) | 0.514 µM (active) | 16.9 µM (inactive) | 18.9 µM (inactive) | 18.3 µM (inactive) | 18.3 µM (inactive) | 2.12 µM (inactive) | 1.94 µM (inactive) | 1.55 µM (inactive) | 2.05 µM (inactive) | 15.1 µM (inactive) | 13.9 µM (inactive)

From ChEMBL document CHEMBL1201862, “PubChem BioAssay data set” (2004)
